Values of other authors, collected in US8633181B2, “Treatment of cutaneous hemangioma” (Rutgers, The State University of New Jersey, priority 2009, dated 2014).

Test system: severe hemangioma of infants
Conditions: systemic propranolol

CC(C)NCC(O)COc1cccc2ccccc12 (stereo not shown) [propranolol]
time to significant shrinkage of the hemangioma after initiation: about 24 hours
